Measured values as given in patent publication US8440725B2, “Synergistic preparations based on mixtures of glycerol ether with aromatic alcohol for controlling mycobacteria” (Air Liquide Sante (International), priority 2002, dated 2013).

Tested on: Mycobacterium terrae (ATCC15755)
Test: Quantitative suspension test Mycobacterium terrae without load, room temperature
Format: cell-based
Details: 0.1% added to 30% strength ethanol, exposure time 60 minutes
Protocol: Various aqueous disinfectants were tested with respect to their activity towards Mycobacterium terrae, cell count 1 to 3×10^9 in a quantitative suspension test without load. The following reduction factors were measured, a reduction factor>5 corresponding to a sufficient Tb activity. For this various amounts of ethanol were added to aqueous active compound solutions and after exposure for 15, 30 and 60 minutes were tested. For testing the tuberculocidal activity, the quantitative suspension test Mycobacterium terrae (ATCC15755) was used in accordance with the Deutsche Gesellscaft für Hygiene and Mikrobiologie [German Society for Hygiene and Microbiology] of 30 Apr. 1997 (Hyg. Med. 22, 1997, issue 6, pages 278ff.).

Structure (SMILES): CCCCC(CC)COCC(O)CO (stereo not shown) [SC 50, 1-(2-ethylhexyl) glycerol ether]
- Tb activity (reduction factor>5 = sufficient): sufficiently Tb active
